Results taken from patent US9809578B2, “Pyrazolyl urea, thiourea, guanidine and cyanoguanidine compounds as trkA kinase inhibitors” (Array BioPharma Inc., priority 2012, dated 2017).
pIC50: −log10 of the molar value.

Molecular target: T1, His-tagged recombinant human TrkA (Homo sapiens, UniProt P04629)
T1 construct: 6HIS tagged cytoplasmic domain from Invitrogen, Cat. No. PV3144; purchased Invitrogen PV3144
Test: TrkA LanthaScreen Eu Kinase Binding Assay
Settings: averaged IC50; LanthaScreen Eu kinase binding, TR-FRET; read-out: TrkA enzyme IC50
Procedure: TrkA binding activity was determined in a TrkA LanthaScreen™ Eu Kinase Binding Assay. […] Three fold serial dilutions of compounds of the invention in DMSO were added to a final percentage of 2% DMSO. […] The percent of control was calculated using a ratiometric emission factor. The IC50 values were determined by fitting a four parameter model to the percent of control data.

T1 sequence (P04629 440-796 limits assumed): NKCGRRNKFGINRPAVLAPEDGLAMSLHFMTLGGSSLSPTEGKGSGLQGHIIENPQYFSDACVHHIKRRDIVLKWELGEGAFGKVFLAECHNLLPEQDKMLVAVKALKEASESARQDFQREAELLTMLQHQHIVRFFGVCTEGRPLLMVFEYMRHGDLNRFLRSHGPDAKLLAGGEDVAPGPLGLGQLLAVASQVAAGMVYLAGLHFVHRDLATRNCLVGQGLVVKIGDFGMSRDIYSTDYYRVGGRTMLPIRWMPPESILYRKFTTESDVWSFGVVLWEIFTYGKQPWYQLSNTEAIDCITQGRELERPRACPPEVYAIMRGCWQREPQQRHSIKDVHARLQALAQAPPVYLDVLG

pIC50	Compound
6.00 to 7.00	Cc1cc(NC(=O)Nc2c(C)c(-c3cnn(C)c3)nn2-c2ccccc2)n(-c2ccccc2)n1 [Example 2, 1-(1′,4-dimethyl-1-phenyl-1H,1′H-[3,4′-bipyrazol]-5-yl)-3-(3-methyl-1-phenyl-1H-pyrazol-5-yl)urea]
> 7.00	Cc1c(-c2cnn(C)c2)nn(-c2ccccc2)c1NC(=O)Nc1cc(C2CC2)nn1-c1ccccc1 [Example 1, 1-(3-cyclopropyl-1-phenyl-1H-pyrazol-5-yl)-3-(1′,4-dimethyl-1-phenyl-1H,1′H-[3,4′-bipyrazol]-5-yl)urea]
6.00 to 7.00	Cc1c(-c2cnn(C)c2)nn(-c2ccccc2)c1NC(=O)Nc1cc(CC(F)(F)F)nn1-c1ccc(F)cc1 [Example 10, 1-(1′,4-dimethyl-1-phenyl-1H,1′H-[3,4′-bipyrazol]-5-yl)-3-(1-(4-fluorophenyl)-3-(2,2,2-trifluoroethyl)-1H-pyrazol-5-yl)urea]
> 7.00	Cc1c(-c2ccn(C)c(=O)c2)nn(-c2ccccc2)c1NC(=O)Nc1cc(C(F)(F)F)nn1-c1ccccc1 [Example 5, 1-(4-methyl-3-(1-methyl-2-oxo-1,2-dihydropyridin-4-yl)-1-phenyl-1H-pyrazol-5-yl)-3-(1-phenyl-3-(trifluoromethyl)-1H-pyrazol-5-yl)urea]
> 7.00	COc1ncc(-c2nn(-c3ccccc3)c(NC(=O)Nc3cc(C(F)(F)F)nn3-c3ccccc3)c2C)cn1 [Example 11, 1-(3-(2-methoxypyrimidin-5-yl)-4-methyl-1-phenyl-1H-pyrazol-5-yl)-3-(1-phenyl-3-(trifluoromethyl)-1H-pyrazol-5-yl)urea]
6.00 to 7.00	Cc1c(-c2cnn(C)c2)nn(-c2ccccc2)c1NC(=O)Nc1cc(C(C)C)nn1-c1ccccc1 [Example 8, 1-(1′,4-dimethyl-1-phenyl-1H,1′H-[3,4′-bipyrazol]-5-yl)-3-(3-isopropyl-1-phenyl-1H-pyrazol-5-yl)urea]
6.00 to 7.00	Cc1c(-c2cnn(C)c2)nn(-c2ccccc2)c1NC(=O)Nc1cc(CC(F)(F)F)nn1-c1ccccc1 [Example 9, 1-(1′,4-dimethyl-1-phenyl-1H,1′H-[3,4′-bipyrazol]-5-yl)-3-(1-phenyl-3-(2,2,2-trifluoroethyl)-1H-pyrazol-5-yl)urea]
> 7.00	Cc1c(OCCO)nn(-c2ccccc2)c1NC(=O)Nc1cc(C(F)(F)F)nn1-c1ccccc1 [Example 12, 1-(3-(2-hydroxyethoxy)-4-methyl-1-phenyl-1H-pyrazol-5-yl)-3-(1-phenyl-3-(trifluoromethyl)-1H-pyrazol-5-yl)urea]
6.00 to 7.00	Cc1c(-c2cnn(C)c2)nn(-c2ccccc2)c1NC(=O)Nc1c(C)c(C(F)(F)F)nn1-c1ccccc1 [Example 6, 1-(1′,4-dimethyl-1-phenyl-1H,1′H-[3,4′-bipyrazol]-5-yl)-3-(4-methyl-1-phenyl-3-(trifluoromethyl)-1H-pyrazol-5-yl)urea]
> 7.00	Cc1c(-c2cnn(C)c2)nn(-c2ccccc2)c1NC(=O)Nc1cc(C2CC2(F)F)nn1-c1ccccc1 (centres unmarked) [Example 7, 1-(3-(2,2-difluorocyclopropyl)-1-phenyl-1H-pyrazol-5-yl)-3-(1′,4-dimethyl-1-phenyl-1H,1′H-[3,4′-bipyrazol]-5-yl)urea]
> 7.00	Cc1c(-c2ccc(=O)n(C)c2)nn(-c2ccccc2)c1NC(=O)Nc1cc(C(F)(F)F)nn1-c1ccccc1 [Example 4, 1-(4-methyl-3-(1-methyl-6-oxo-1,6-dihydropyridin-3-yl)-1-phenyl-1H-pyrazol-5-yl)-3-(1-phenyl-3-(trifluoromethyl)-1H-pyrazol-5-yl)urea]
